Patent US9737493B2, “Compositions and methods for modulating DNMT1 inhibitor activity” (University of Louisville Research Foundation, Inc., priority 2012, dated 2017)

How the values were obtained:
A549 cells [1] = experiment: GSH-Glo reduced glutathione content assay; type: cell-based, human; conditions: A549, 2 μM XB05, 24 h
Experimental: (§1) FIG. 8: XB05 Modulates Cellular Stress Responses. (A) A luminescence-based assay for reduced glutathione (GSH) content in cells treated 24 h with XB05 (1 μM for U937 and Hs27, or 2 μM for A549), in the absence or presence of 5 mM GSH. Some cells were treated with buthionine sulfoximine (BSO, 200 μM) plus diethyl maleate (DEM, 1 mM) for 3 h as a positive control for GSH depletion. Bar graph indicates mean+/−SEM from three independent experiments. […] (C) Western blot for Nrf2 in nuclear extracts from cells treated as in part A for either 8 h or 24 h. Membranes were stripped and reprobed for Ku-70 as a loading control. (D) Western blot for phospho-eIF2α (Ser51), total eIF2-α, BiP/Grp78, and GAPDH (loading control) in whole cell extracts from cell lines treated as indicated for 24 h with concentrations of XB05 described in part A. Thapsigargin (TG, 2 μM) was used as a positive control for induction of endoplasmic reticulum (ER) stress.
(§2) Reduced Glutathione Content Analyses. After treatment as indicated in the figures and in the Brief Description of the Drawings, cells were harvested as described, counted and dispensed at a density of 10,000 cells/well in triplicate on a 96-well white, opaque bioluminescence plate (Corning). Cellular content of reduced glutathione (GSH) was analyzed using the GSH-Glo® Glutathione Assay Kit (Promega) according to the manufacturer's instructions. The chemiluminescent signal was quantified on a Biotek Synergy HT plate-reader (Biotek, Winooski, Vt.) using an integration time of 1 s/well.

Hs27 cells [2] = experiment: GSH-Glo reduced glutathione content assay; type: cell-based, human; conditions: Hs27, 1 μM XB05, 24 h
Experimental: as §1, §2

U937 cells [3] = experiment: GSH-Glo reduced glutathione content assay; type: cell-based, human; conditions: U937, 1 μM XB05, 24 h
Experimental: as §1, §2

[4] = DTNB assay for free sulfhydryls; conditions: 5 mM XB05; 0.25 mM Cys or GSH, pH 8, 30 min, 37° C.
Experimental: FIG. 12: XB05 is Weakly Reactive with Thiols In Vitro: 0.25 mM Cysteine (Cys, top panel) or glutathione (GSH, bottom panel) were incubated with XB05, diethyl maleate (DEM), or maleimide at the indicated concentrations, or with an equivalent amount of vehicle (DMSO), for 30 min at 37° C. 5,5′-Dithiobis-2-nitrobenzoic acid (DTNB) assays were conducted as described in Methods. Absorbance for triplicate wells was determined at 412 nm. Points represent the mean and standard deviation for triplicate wells. Data shown are representative of two independent experiments.
Dithiobis-2-nitrobenzoic Acid (DTNB) Assay for Free Sulfhydryls. For each experiment, a 20× working solution of DTNB (2 mM DTNB, 50 mM sodium acetate in 100 mM Tris-HCl, pH 8.0) and 2× solutions of cysteine and GSH (0.5 mM in 100 mM Tris-HCl, pH 8.0) were freshly prepared. 10 mM stock solutions of XB05, diethyl maleate and maleimide were prepared in 100% DMSO, and subsequently serially diluted to 2× working solutions in 100 mM Tris-HCl, pH 8.0. 100 μl each of thiol compounds (final concentration 0.25 mM) and thiol-reactive compounds (final concentrations 0.05-5 mM) or vehicle control (DMSO) were added in duplicate to a 96-well plate and allowed to incubate at 37° C. for 30 minutes. […] Absorbance was read on a Biotek HT Synergy Plate reader (Winooski, Vt.) at 412 nm.

A549 cells [5] = experiment: Western blot for Nrf2 in nuclear extracts; type: cell-based, human; conditions: A549, 2 μM, 8 or 24 h
Experimental: as §1
(§3) Cell Extracts. […] Nuclear cells extracts were isolated using the NE-PER Nuclear and Cytoplasmic Extraction Kit (Thermo Scientific, Rockford, Ill.), per the manufacturer's protocol. For total cell extract, cells were lysed in RIPA buffer (Thermo Scientific) containing protease inhibitor cocktail III and phosphatase inhibitor cocktail (Calbiochem, Billerica, Mass.) for 5 min at 4° C., and then cleared by centrifugation at 16,000 g for 10 min at 4° C. All protein concentrations were determined using the DC Protein Assay™ kit (BioRad, Hercules, Calif.).
(§4) Western Blotting. […] Proteins were detected using the following primary antibody concentrations: PARP-1 (1:1000), cleaved caspase-3 (1:1000), γ-H2AX (Ser139) ([…]), phospho-eIF2α (Ser51) (1:1000), eIF2α (1:1000), Bip (1:1000), Nrf2 (1:1000), Ku-70 (1:1000) and GAPDH (1:1000). […] Where indicated, band intensities were quantified using the UN-SCAN-IT Gel digitizing software (Silk Scientific, Orem Utah) and normalized to vehicle control.

Hs27 cells [6] = experiment: Western blot for Nrf2 in nuclear extracts; type: cell-based, human; conditions: Hs27, 1 μM, 8 or 24 h
Experimental: as §1, §3, §4

U937 cells [7] = experiment: Western blot for Nrf2 in nuclear extracts; type: cell-based, human; conditions: U937, 1 μM, 8 or 24 h
Experimental: as §1, §3, §4

## CCCCCC(O)C#CC(F)(F)Br (stereo not shown) [XB05]
A549 cells [1]
  increase in GSH: approximately 1.3 fold
Hs27 cells [2]
  increase in GSH: ~2 fold
U937 cells [3]
  change in reduced GSH: depletion of reduced GSH
[4]
  depletion of free thiols: 40-50%
A549 cells [5]
  nuclear Nrf2: slight increase in nuclear levels of Nrf2
Hs27 cells [6]
  nuclear Nrf2: no change
U937 cells [7]
  nuclear Nrf2: decrease in nuclear Nrf2
